{
  "source": "paper PMC7723077",
  "about": "“Spatial Profiles of Phosphate in Roots Indicate Developmental Control of Uptake, Recycling, and Sequestration” (Plant Physiology, 2020)",
  "biological_target": "T1, cpFLIPPi-5.3m",
  "T1 construct": "gene PiBP",
  "conditions": "in vivo, root epidermal cells of transition zone; injection buffer 50 mM MOPS-KOH pH 7.3, 0.5 mM MgCl2, total K+ 75 mM",
  "data": [
    {"smiles": "O=P(O)(O)O", "note": "[Pi, inorganic phosphate]", "values": [
      {"measurement": "Kd", "value": "7.4 ± 1.7", "unit": "mM"}
    ]}
  ]
}
